Measurements published in paper PMC6193938, “Characterization of a novel AICARFT inhibitor which potently elevates ZMP and has anti-tumor activity in murine models” (Scientific Reports, 2018).
Like-named read-outs stand apart in the source and are kept apart here.

Test system: panel of human cell lines
Assay: In vitro proliferation assay, Cell Titer Glo, two doubling times, 298 cell lines
Type: cell-based
Conditions: read-out: ABS_IC50_VALUE
Excerpt: Cell Titer Glo measures ATP, thus the IC50s represent both the effect on purine production and cell proliferation, which are related. […] Folates are actively taken up in cells by reduced folate carrier (SLC19A1), proton-coupled folate transporter (SLC46A1), and the FOLR1 folate receptor[17]. Once inside the cell, folates are trapped by polyglutamation catalyzed by folylpolyglutamate synthetase (FPGS). […] Gene expression data for ATIC, GART, APRT, HPRT, FOLR1, SLC19A1, SLC46A1 & FPGS are shown in Fig. 2, since these genes were anticipated to predict sensitivity. […] The MDA-MB-231 cell line is reduced folate carrier (SLC19A1) negative due to epigenetic silencing.
Cells were cultured using recommended culture conditions unless noted otherwise (Supplemental Table 3). Cells were plated, dosed with compound and incubated at 37 °C for approximately 2 doubling times as determined for each cell line. Cell Titer Glo (Promega) assay was used to measure proliferation according to manufacturer’s recommendations by measuring luminescence with Flexstation3 (Molecular Devices) with 500 ms integration time. […] The % response was fit to a four-parameter logistic equation using ACTIVITYBASE 4.0 to determine the absolute IC50 values.
Cell Lines: Cell lines of adrenal gland, autonomic ganglia, biliary tract, blood ALL, blood AML, blood CML, blood hodgkin lymphoma, blood lymphoma, blood multiple myeloma, blood NHL, blood RAEB, bone, breast ER+, breast fibroblast, breast fibroblast mixed, breast HER2, breast normal, breast triple negative, cervix, CNS, endometrium, eye, fibroblast normal, kidney ns, kidney renal, large intestine, liver, liver normal, lung adenocarcinoma, lung ns, lung NSCLC, lung NSCLC mixed, lung SCLC, lung squamous, melanoma, melanoma normal, esophagus adenocarcinoma, esophagus ns, esophagus squamous, ovary, pancreas adenocarcinoma, pancreas ductal carcinoma, pancreas ns, pleura mesothelioma, prostate adenocarcinoma, prostate small cell, salivary gland, small intestine, soft tissue, stomach, testis, thyroid, thyroid squamous, umbilical vein endothelial cell normal, upper aerodigestive tract squamous, urinary tract ns, urinary tract transitional cell carcinoma, and vulva squamous origin were obtained from ATCC, CASTCC, CLS, DSMZ, ECACC, HSRRB, ICLC, JCRB, NCI, Riken and SNU cell banks. The murine A9 cell line was acquired from the ATCC (CCL-1.4).

## O=c1[nH]ccc2cc(F)c(NS(=O)(=O)c3ccc(N4CC[C@@H](O)C4)s3)cc12 [LSN3213128, N-(6-Fluoro-1-oxo-1,2-dihydroisoquinolin-7-yl)-5-[(3R)-3-hydroxypyrrolidin-1-yl]thiophene-2-sulfonamide]
Homo sapiens, 22Rv1, 22RV1, prostate
  IC50: 13.7 µM
Homo sapiens, 769-P, kidney
  IC50: 1.21 µM
Homo sapiens, 5637, urinary tract
  IC50: 2.88 µM
Homo sapiens, 8505C, thyroid
  IC50: > 20 µM
Homo sapiens, A101D, skin
  IC50: 2.22 µM
Homo sapiens, A204, A204, soft tissue
  IC50: > 20 µM
Homo sapiens, A253, A253, salivary gland
  IC50: > 20 µM
Homo sapiens, A498, A498, kidney
  IC50: 12.2 µM
Homo sapiens, A549, A549, lung
  IC50: > 20 µM
Homo sapiens, A2058, A2058, skin
  IC50: > 20 µM
Homo sapiens, A2780, A2780, ovary
  IC50: 3.23 µM
Homo sapiens, ACHN, kidney
  IC50: 1.94 µM
Homo sapiens, AGS, stomach
  IC50: > 20 µM
Homo sapiens, ASPC1, AsPC-1, pancreas
  IC50: > 20 µM
Homo sapiens, AU565, AU565, breast
  IC50: 0.58 µM
Homo sapiens, BCP-1, BCP-1, haematopoietic and lymphoid tissue
  IC50: 11.1 µM
Homo sapiens, BT-20, BT-20, breast
  IC50: > 20 µM
Homo sapiens, BT-474, BT-474, breast
  IC50: > 20 µM
Homo sapiens, BT-483, BT-483, breast
  IC50: > 20 µM
Homo sapiens, BT-549, BT-549, breast
  IC50: > 20 µM
Homo sapiens, BXPC-3, BxPC-3, pancreas
  IC50: 4.49 µM
Homo sapiens, C2BBe1, C2BBe1, large intestine
  IC50: > 20 µM
Homo sapiens, C3A, liver
  IC50: 25.2 µM
Homo sapiens, C32, skin
  IC50: > 20 µM
Homo sapiens, CA46, CA46, haematopoietic and lymphoid tissue
  IC50: > 20 µM
Homo sapiens, CAKI-1, Caki-1, kidney
  IC50: > 20 µM
Homo sapiens, CAKI-2, Caki-2, kidney
  IC50: 5.03 µM
Homo sapiens, CAMA-1, CAMA-1, breast
  IC50: > 20 µM
Homo sapiens, CAPAN-1, CAPAN-1, pancreas
  IC50: > 20 µM
Homo sapiens, CCF-STTG1, CCF-STTG1, central nervous system
  IC50: > 20 µM
Homo sapiens, CFPAC-1, CFPAC-1, pancreas
  IC50: > 20 µM
Homo sapiens, CHL-1, CHL-1, skin
  IC50: > 20 µM
Homo sapiens, CHP-212, CHP-212, autonomic ganglia
  IC50: > 20 µM
Homo sapiens, COLO 205, COLO-205, large intestine
  IC50: 1.68 µM
Homo sapiens, COLO-320-HSR, large intestine
  IC50: 3.3 µM
Homo sapiens, COLO-680N, oesophagus
  IC50: 2.05 µM
Homo sapiens, COLO-741, COLO-741, large intestine
  IC50: 1.58 µM
Homo sapiens, COR-L23, COR-L23, lung
  IC50: 1.4 µM
Homo sapiens, Calu-1, Calu-1, lung
  IC50: > 20 µM
Homo sapiens, Calu-3, Calu-3, lung
  IC50: 2.27 µM
Homo sapiens, Calu-6, Calu-6, lung
  IC50: 11.9 µM
Homo sapiens, Capan-2, Capan-2, pancreas
  IC50: 15.3 µM
Homo sapiens, ChaGo-K-1, ChaGo-K-1, lung
  IC50: > 20 µM
Homo sapiens, D341 Med, central nervous system
  IC50: > 20 µM
Homo sapiens, DB, haematopoietic and lymphoid tissue
  IC50: 10.8 µM
Homo sapiens, DMS-53, DMS-53, lung
  IC50: > 20 µM
Homo sapiens, Daoy, central nervous system
  IC50: 1.02 µM
Homo sapiens, Daudi, haematopoietic and lymphoid tissue
  IC50: 1.1 µM
Homo sapiens, EB1, haematopoietic and lymphoid tissue
  IC50: 1.28 µM
Homo sapiens, EB2, haematopoietic and lymphoid tissue
  IC50: > 20 µM
Homo sapiens, ES-2, ovary
  IC50: > 20 µM
Homo sapiens, F-36P, haematopoietic and lymphoid tissue
  IC50: 0.79 µM
Homo sapiens, G-361, G-361, skin
  IC50: > 20 µM
Homo sapiens, G-401, G-401, kidney
  IC50: > 20 µM
Homo sapiens, G-402, G-402, soft tissue
  IC50: > 20 µM
Homo sapiens, GCT, soft tissue
  IC50: > 20 µM
Homo sapiens, GI-1, central nervous system
  IC50: 15.5 µM
Homo sapiens, GP2d, large intestine
  IC50: 14.3 µM
Homo sapiens, HCC38, HCC38, breast
  IC50: > 20 µM
Homo sapiens, HCC70, HCC70, breast
  IC50: > 20 µM
Homo sapiens, HCC202, HCC202, breast
  IC50: > 20 µM
Homo sapiens, HCC827, HCC827, lung
  IC50: 16 µM
Homo sapiens, HCC1143, HCC1143, breast
  IC50: > 20 µM
Homo sapiens, HCC1187, HCC1187, breast
  IC50: > 20 µM
Homo sapiens, HCC1395, HCC1395, breast
  IC50: > 20 µM
Homo sapiens, HCC1419, HCC1419, breast
  IC50: 10.4 µM
Homo sapiens, HCC1599, HCC1599, breast
  IC50: 3.65 µM
Homo sapiens, HCC1806, HCC1806, breast
  IC50: > 20 µM
Homo sapiens, HCC1937, HCC1937, breast
  IC50: 18.5 µM
Homo sapiens, HCC1954, HCC1954, breast
  IC50: 0.09 µM
Homo sapiens, HCC2218, HCC2218, breast
  IC50: > 20 µM
Homo sapiens, HCT-15, HCT-15, large intestine
  IC50: 3.51 µM
Homo sapiens, HEC-1-A, endometrium
  IC50: 13.6 µM
Homo sapiens, HGC-27, HGC-27, stomach
  IC50: > 20 µM
Homo sapiens, HL-60, HL-60, haematopoietic and lymphoid tissue
  IC50: > 20 µM
Homo sapiens, HLE, liver
  IC50: 15 µM
Homo sapiens, HLF, liver
  IC50: 9.35 µM
Homo sapiens, HMCB, skin
  IC50: 4.45 µM
Homo sapiens, HPAF-II, pancreas
  IC50: 11.1 µM
Homo sapiens, HSC-2, HSC-2, upper aerodigestive tract
  IC50: 1.28 µM
Homo sapiens, HSC-3, HSC-3, upper aerodigestive tract
  IC50: 7.22 µM
Homo sapiens, HSC-4, HSC-4, upper aerodigestive tract
  IC50: 2.95 µM
Homo sapiens, HT1197, HT-1197, urinary tract
  IC50: 0.37 µM
Homo sapiens, HT-29, HT-29, large intestine
  IC50: > 20 µM
Homo sapiens, HT-144, HT-144, skin
  IC50: > 20 µM
Homo sapiens, HT-1080, HT-1080, soft tissue
  IC50: 4 µM
Homo sapiens, HT-1376, HT-1376, urinary tract
  IC50: 0.49 µM
Homo sapiens, Hs 294T, skin
  IC50: > 20 µM
Homo sapiens, Hs 606.T, breast
  IC50: > 20 µM
Homo sapiens, Hs 688(A).T, skin
  IC50: > 20 µM
Homo sapiens, Hs 695T, skin
  IC50: > 20 µM
Homo sapiens, Hs 739.T, breast
  IC50: > 20 µM
Homo sapiens, Hs 839.T, skin
  IC50: > 20 µM
Homo sapiens, Hs 940.T, skin
  IC50: > 20 µM
Homo sapiens, HuCCT-1, HuCCT1, biliary tract
  IC50: 17.1 µM
Homo sapiens, HuG1-N, stomach
  IC50: 2.53 µM
Homo sapiens, HuTu80, HUTU-80, small intestine
  IC50: 0.83 µM
Homo sapiens, Huh-7, HuH-7, liver
  IC50: 12.5 µM
Homo sapiens, IA-LM, lung
  IC50: > 20 µM
Homo sapiens, J82, urinary tract
  IC50: > 20 µM
Homo sapiens, JHH7, JHH-7, liver
  IC50: 28.3 µM
Homo sapiens, K562, K-562, haematopoietic and lymphoid tissue
  IC50: 0.67 µM
Homo sapiens, KALS-1, KALS-1, central nervous system
  IC50: > 20 µM
Homo sapiens, KE-97, KE-97, stomach
  IC50: 1.09 µM
Homo sapiens, KG-1, haematopoietic and lymphoid tissue
  IC50: > 20 µM
Homo sapiens, KLE, endometrium
  IC50: > 20 µM
Homo sapiens, KM12, KM12, large intestine
  IC50: 2.05 µM
Homo sapiens, KNS-42, KNS-42, central nervous system
  IC50: > 20 µM
Homo sapiens, KNS-62, KNS-62, lung
  IC50: 16 µM
Homo sapiens, KNS-81, central nervous system
  IC50: > 20 µM
Homo sapiens, KP-4, pancreas
  IC50: 0.74 µM
Homo sapiens, KU812, KU812, haematopoietic and lymphoid tissue
  IC50: 0.08 µM
Homo sapiens, KYSE-410, KYSE-410, oesophagus
  IC50: 1.56 µM
Homo sapiens, Kasumi-6, haematopoietic and lymphoid tissue
  IC50: > 20 µM
Homo sapiens, LOUCY, haematopoietic and lymphoid tissue
  IC50: 1.76 µM
Homo sapiens, LUDLU-1, LUDLU-1, lung
  IC50: > 20 µM
Homo sapiens, MCF7, MCF7, breast
  IC50: 11.1 µM
Homo sapiens, MDA-MB-157, MDA-MB-157, breast
  IC50: > 20 µM
Homo sapiens, MDA-MB-415, MDA-MB-415, breast
  IC50: > 20 µM
Homo sapiens, MDA-MB-436, MDA-MB-436, breast
  IC50: > 20 µM
Homo sapiens, MDA-MB-453, MDA-MB-453, breast
  IC50: > 20 µM
Homo sapiens, MDA-MB-468, MDA-MB-468, breast
  IC50: 0.44 µM
Homo sapiens, MEG-01, MEG-01, haematopoietic and lymphoid tissue
  IC50: 0.29 µM
Homo sapiens, MG-63, MG-63, bone
  IC50: > 20 µM
Homo sapiens, MKN-1, MKN1, stomach
  IC50: > 20 µM
Homo sapiens, MKN-45, MKN45, stomach
  IC50: > 20 µM
Homo sapiens, MKN-74, MKN74, stomach
  IC50: > 20 µM
Homo sapiens, MOLT-4, MOLT-4, haematopoietic and lymphoid tissue
  IC50: 1.11 µM
Homo sapiens, MSTO-211H, pleura
  IC50: > 20 µM
Homo sapiens, Malme-3M, skin
  IC50: > 20 µM
Homo sapiens, NCI-H23, NCI-H23, lung
  IC50: 14.4 µM
Homo sapiens, NCI-H28, NCI-H28, pleura
  IC50: > 20 µM
Homo sapiens, NCI-H69, NCI-H69, lung
  IC50: 18.5 µM
Homo sapiens, NCI-H82, NCI-H82, lung
  IC50: 2.28 µM
Homo sapiens, NCI-H209, NCI-H209, lung
  IC50: 5.55 µM
Homo sapiens, NCI-H226, NCI-H226, lung
  IC50: 4.52 µM
Homo sapiens, NCI-H358, NCI-H358, lung
  IC50: 6.06 µM
Homo sapiens, NCI-H441, NCI-H441, lung
  IC50: > 20 µM
Homo sapiens, NCI-H446, NCI-H446, lung
  IC50: 1.68 µM
Homo sapiens, NCI-H460, NCI-H460, lung
  IC50: 0.97 µM
Homo sapiens, NCI-H508, NCI-H508, large intestine
  IC50: 13.1 µM
Homo sapiens, NCI-H520, NCI-H520, lung
  IC50: 9.66 µM
Homo sapiens, NCI-H522, NCI-H522, lung
  IC50: 9.92 µM
Homo sapiens, NCI-H524, NCI-H524, lung
  IC50: 11.3 µM
Homo sapiens, NCI-H596, NCI-H596, lung
  IC50: > 20 µM
Homo sapiens, NCI-H647, NCI-H647, lung
  IC50: 1.4 µM
Homo sapiens, NCI-H650, NCI-H650, lung
  IC50: 8.6 µM
Homo sapiens, NCI-H660, NCI-H660, prostate
  IC50: 7.16 µM
